{
  "source": "patent US6864061B2",
  "about": "“Method for screening compounds for anti-inflammatory activity” (GeneTrol Biotherapeutics, Inc., priority 2000, dated 2005)",
  "format_in_all_cases": "cell-based, human",
  "key": {"[1]": {"test_system": "PKR-overexpressing Namalwa cells (Nam-PKR), TNF-alpha production", "assay": "TNF-alpha production in PMA/poly I:C-induced PKR-overexpressing Namalwa cells (ELISA)", "details": "1 mM 2-AP, 20 mM PMA priming 20 hr, 200 μg/ml poly I:C induction 3 days, FIG. 2A", "description": "(§1) PKR-transfected Namalwa cells (Nam-PKR) were cultured at 2.5×10^5 cells/ml in DMEM/F12 medium supplemented with 10% FBS. The cells were treated with 20 mM PMA (priming) for 20 hr followed by treatment with 200 μg/ml poly I:C (induction) for 3 days in the presence of 1 mM 2-aminopurine (2-AP) or in the absence of 2-AP. One set of cells was left untreated (non-induced controls). Following treatment, the culture supernatants were collected and analyzed for TNF-alpha or for TNF-beta by ELISA according to the procedure provided by the supplier of the ELISA kits (R&D Systems). The data for cytokine induction is shown in FIGS. 2A and 2B, which illustrates that the PKR-overexpressing Namalwa cell line produces a high level of proinflammatory cytokine (TNF-alpha) under induction conditions (FIG. 2A) and that the induced levels of TNF-alpha are about 4-fold lower in the presence of the PKR inhibitor, 2-AP."}, "[2]": {"test_system": "PKR-overexpressing Namalwa cells (Nam-PKR), TNF-beta production", "assay": "TNF-beta production in PMA/poly I:C-induced PKR-overexpressing Namalwa cells (ELISA)", "details": "1 mM 2-AP; 20 mM PMA priming 20 hr, 200 μg/ml poly I:C induction 3 days; FIG. 2B", "description": "as §1"}, "[3]": {"test_system": "PKR-overexpressing Namalwa cells (Nam-PKR), IFN-alpha production", "assay": "Dose-response inhibition of IFN-alpha production in PMA and poly r(I):poly r(C) treated PKR-overexpressing Namalwa cells", "details": "FIG. 3"}},
  "data": [
    {"molecule": "Nc1ncc2[nH]cnc2n1", "note": "[2-AP, 2-aminopurine]", "values": [
      {"measurement": "suppression of TNF-alpha production level, with vs without the PKR inhibitor", "setting": "[1]", "value": "about 4 fold"},
      {"measurement": "suppression of TNF-alpha production level, with vs without the PKR inhibitor", "setting": "[1]; listed as 2 AP", "value": 4, "unit": "fold"},
      {"measurement": "suppression of TNF-beta production level, with vs without the PKR inhibitor", "setting": "[2]", "value": 5, "unit": "fold"},
      {"measurement": "inhibition of IFN-alpha production at 1 mM (in words)", "setting": "[3]; 1 mM 2-AP, both experiments", "value": "relatively ineffective"},
      {"measurement": "inhibition of IFN-alpha production at 8 mM (in words)", "setting": "[3]; 8 mM 2-AP", "value": "completely inhibited"},
      {"measurement": "inhibition of IFN-alpha at 5 mM relative to 1 mM", "setting": "[3]; first experiment", "value": 360, "unit": "fold"},
      {"measurement": "inhibition of INF-alpha production between 1 mM and 5 mM", "setting": "[3]; second experiment", "value": 5, "unit": "fold"}
    ]}
  ]
}
